Data on 8 molecules can be found in paper PMC5825169 (PLoS Pathogens, 2018).

Assay [1] addresses T1, VCC β-prism lectin domain (Vibrio cholerae serotype O1, UniProt P09545). Kind of assay: biochemical. The format is binding.
In assay [2] the target is T2, RbmC2 β-prism domain (Vibrio cholerae, UniProt Q9KTH2). Put plainly: biochemical. The format is binding.
The target of the next assay is RbmC1 β-prism domain (Vibrio cholerae, UniProt Q9KTH2). Put plainly: biochemical. It is filed as binding.
Assay [3] concerns the target T1, VCC β-prism lectin domain. Put plainly: biochemical. It is filed as binding. This is another data set of the same source.
Assay [4] has as its target T2, RbmC2 β-prism domain. Kind of assay: biochemical. The format is binding. The note with it: RbmC2 β-prism affinity.
Assay [5] has as its target T1, VCC β-prism lectin domain. The note with it: read-out: VCC β-prism affinity; cited from earlier work.
For assay [6], the target named is RbmC1-GFPUV fusion (Vibrio cholerae El Tor strain N16961). Put plainly: ITC.
Assay [7] addresses RbmC2-GFPUV fusion (Vibrio cholerae El Tor strain N16961). Put plainly: ITC. Background: ITC needs no label: the signal is the heat of the interaction.

Where “and” joins values, the source holds several entries; their conditions need not be identical. Equal values may be shown once. Entries after “also recorded” stand apart in the source; their conditions may differ. Read-outs that look alike come from different tables or passages of the source.

With `CC(=O)N[C@H]1C(O)O[C@H](CO)[C@@H](O[C@@H]2O[C@H](CO)[C@H](O)[C@H](O)[C@H]2O)[C@@H]1O` (stereo partly drawn) [LacNAc, N-acetyl-D-lactosamine], the “VCC β-prism binding” value in assay [1] is on record as “Did not bind; also recorded: unable to detect binding”. Further, the “RbmC2 β-prism binding” value on RbmC2 β-prism domain [2] is on record as “Did not bind; also recorded: unable to observe binding”. At RbmC1 β-prism domain, the “RbmC1 β-prism binding” value is on record as “Did not bind; also recorded: unable to observe binding”.

Take `CC(=O)N[C@H]1[C@H](O[C@H]2[C@H](O)[C@@H](NC(C)=O)C(O)O[C@@H]2CO)O[C@H](CO)[C@@H](O[C@@H]2O[C@H](CO[C@H]3O[C@H](CO)[C@@H](O)[C@H](O)[C@@H]3O[C@@H]3O[C@H](CO)[C@@H](O)[C@H](O)[C@H]3NC(C)=O)[C@@H](O)[C@H](O[C@H]3O[C@H](CO)[C@@H](O)[C@H](O)[C@@H]3O[C@@H]3O[C@H](CO)[C@@H](O)[C@H](O)[C@H]3NC(C)=O)[C@@H]2O)[C@@H]1O` (some centres unmarked) [NGA2, GlcNAcβ1-2Manα1-6(GlcNAcβ1-2Manα1–3)Manβ1-4GlcNAcβ1-4GlcNAc]: the Kd in assay [3] amounted to 200 nM; at RbmC2 β-prism domain [4], 1.5 ± 0.5 nM.

Take `CC(=O)N[C@H]1[C@H](O[C@@H]2[C@@H](OC[C@H]3OC(O)[C@@H](O)[C@@H](O[C@H]4O[C@H](CO)[C@@H](O)[C@H](O)[C@@H]4O[C@@H]4O[C@H](CO)[C@@H](O)[C@H](O)[C@H]4NC(C)=O)[C@@H]3O)O[C@H](CO)[C@@H](O)[C@@H]2O)O[C@H](CO)[C@@H](O)[C@@H]1O` (some centres unmarked) [Pentasaccharide, N-linked core pentasaccharide]: at RbmC2 β-prism domain [4], the Kd was 1.1 nM and 1.5 nM.

Take `OC[C@H]1O[C@H](OC[C@H]2OC(O)[C@@H](O)[C@@H](O[C@H]3O[C@H](CO)[C@@H](O)[C@H](O)[C@@H]3O)[C@@H]2O)[C@@H](O)[C@@H](O)[C@@H]1O` (stereo partly drawn) [Mannotriose, 1,3-α-1,6-α-D-mannotriose]: the results for the Kd (in assay [1]; on RbmC2 β-prism domain [2] (RbmC2 β-prism affinity); at RbmC1 β-prism domain (RbmC1 β-prism affinity)) were 229 µM, 4.1 µM and 0.6 µM, respectively.

As for Asialofetuin, the Kd on RbmC2 β-prism domain [2] (read-out: RbmC2 β-prism affinity (apparent)) amounted to 0.0184 µM; at RbmC1 β-prism domain (read-out: RbmC1 β-prism affinity (apparent)), 0.0159 µM.

On RbmC2 β-prism domain [2] (RbmC2 β-prism affinity), `CC(=O)N[C@H]1[C@H](O[C@@H]2C(O)O[C@H](CO)[C@@H](O)[C@@H]2O)O[C@H](CO)[C@@H](O)[C@@H]1O` (stereo partly drawn) [GlcNAc-Man, N-acetylglucosaminyl-β-1,2-mannose] had a Kd of 159 µM.

In the case of `CO[C@H]1O[C@H](CO)[C@@H](O)[C@H](O)[C@@H]1O` [Me-α-mannose, methyl α-D-mannopyranoside], the Kd is 179 µM and 503 µM on RbmC2 β-prism domain [2] (RbmC2 β-prism affinity); 503 µM and 179 µM on RbmC1 β-prism domain (RbmC1 β-prism affinity); 2.7 mM in assay [5].

B1: bovine asialofetuin (natural protein)
chain: IPLDPVAGYKEPACDDPDTEQAALAAVDYINKHLPRGYKHTLNQIDSVKVWPRRPTGEVYDIEIDTLETTCHVLDPTPLANCSVRQQTQHAVEGDCDIHVLKQDGQFSVLFTKCDSSPDSAEDVRKLCPDCPLLAPLNDSRVVHAVEVALATFNAESNGSYLQLVEISRAQFVPLPVSVSVEFAVAATDCIAKEVVDPTKCNLLAEKQYGFCKGSVIQKALGGEDVRVTCTLFQTQPVIPQPQPDGAEAEAPSAVPDAAGPTPSAAGPPVASVVVGPSVVAVPLPLHRAHYDLRHTFSGVASVESSSGEAFHVGKTPIVGQPSIPGGPVRLCPGRIRYFKI
modifications: three glycosylation sites occupied by heterogeneous mixtures of bi- and tri-antennary glycans (asialo form)
In the case of B1, the Kd turned out to be 15.9 nM in assay [6] and 18.4 nM in assay [7].
